Test results from US5654267A, “Cooperative combinations of ligands contained within a matrix” (La Jolla Cancer Research Center, priority 1994, dated 1997).

Legend:
Rat-1 cells = experiment: DNA synthesis ([3H]-thymidine incorporation) in EGF-stimulated Rat-1 cells; assay type: cell-based; conditions: 40 ng/ml EGF, 20 μg/ml coating, FIG. 6
Protocol: (§1) Rat-1 cells were plated at 1×10^5 cells/well on 24-well plates that had been coated for 12 hours either with 20 μg/ml of vitronectin or 20 μg/ml of type I collagen. Cells were incubated for 36 hours in Dulbecco's modified Eagle's medium containing 0.1% bovine serum albumin followed by addition of buffer or 40 ng/ml EGF (Boehringer Mannheim). After 15 hours, the cells were pulse-labeled with 1 μCi/ml [^3 H]-thymidine (specific activity 6.7 Ci/mmol, DuPont NEN) for 3 hours and thymidine incorporation into DNA was determined by liquid scintillation counting.
After being serum-starved, the cells were treated with buffer only (samples 1 and 2) or with EGF (samples 3 and 4). Data points are the average of triplicate samples.

NRK cells = experiment: DNA synthesis in IGF-1-treated NRK cells on vitronectin, collagen or laminin; assay type: cell-based; conditions: data not shown
[1] = system: human foreskin fibroblasts; experiment: DNA synthesis ([3H]-thymidine incorporation) in PDGF-stimulated human foreskin fibroblasts; assay type: cell-based; conditions: 40 ng/ml PDGF-BB, 20 μg/ml coating, FIG. 5 column 3 vs 4
Protocol: as §1, with “Human foreskin fibroblasts (Coriell) were” for “Rat-1 cells were”, “vitronectin of” for “vitronectin or”, “ng/ml PDGF-BB” for “ng/ml EGF”
Cells were serum-starved and treated with buffer only (samples 1 and 2) or with PDGF (samples 3 and 4). Data points are the average of duplicate samples.

[2] = system: FG-B cells (αv β3 integrin positive human pancreatic carcinoma cells); experiment: DNA synthesis ([3H]-thymidine incorporation) in insulin-stimulated FG-B cells on vitronectin or type I collagen; assay type: cell-based; conditions: 100 mM insulin, plates coated with 10 μg/ml vitronectin or type I collagen, FIG. 4 columns 9, 10
Protocol: (§2) FG-B (columns 1, 2, 5, 6, 9, and 10) and FG-C cells (columns 3, 4, 7, 8, 11, and 12) were plated at 1×10^5 cells/well on 24-well plates that had been coated either with vitronectin (dark column) or type I collagen (open column). Plates were coated with 10 μg/ml of either vitronectin or type I collagen for 12 hours followed by blocking with 0.5% bovine serum albumin for 2 hours. Cells were incubated for 36 hours in DMEM containing 10% FCS (columns 1 to 4), or in DMEM containing 0.1% BSA followed by addition of buffer (columns 5 to 8) or 100 mM insulin (columns 9 to 12). FCS is used as a control because it provides maximal stimulation owing to the presence of high levels of growth factors and adhesion proteins.
(§3) After 15 hours, the cells were pulse-labeled with 1 μCi/ml [^3 H]-thymidine (specific activity 6.7 Ci/mmol, DuPont NEN) for 3 hours and thymidine incorporation into DNA was determined by trichloroacetic acid precipitation and liquid scintillation counting. Error bars indicate the standard error of triplicate determinations.

[3] = system: FG-C cells (αv β3 integrin negative human pancreatic carcinoma cells); experiment: DNA synthesis ([3H]-thymidine incorporation) in insulin-stimulated FG-C cells on vitronectin or type I collagen; assay type: cell-based; conditions: lack αv β3, FIG. 4 columns 3, 4, 7, 8, 11, 12
Protocol: as §2, §3

[4] = system: αv β3 integrin-IRS-1 association; experiment: Association of IRS-1 with the vitronectin receptor (αv β3) in insulin-stimulated HIRcB cells, immunoprecipitation/immunoblot densitometry; assay type: cell-based, rat
Protocol: HIRcB cells were grown to 80% confluency in Dulbeccos's modified Eagle's medium (DMEM) containing 10% fetal calf serum (FCS) and 500 nM methotrexate, incubated in DMEM +0.1% BSA for 36 hours, and either left quiescent, or stimulated with 100 nM insulin (Sigma) for 3 minutes. Cell monolayers were rinsed with PBS, frozen with liquid nitrogen and lysed in NP-40 lysis buffer (20 mM Tris-HCl (pH 8.0), 1% NP-40, 10% glycerol, 137 mM NaCl, 1 mM CaCl2, 1 mM MgCl2, 1 mM sodium orthovanadate, 50 mM sodium fluoride, 1 mM phenylmethylsulfonylfluoride, 0.1 U/ml aprotinin, 10 μg/ml pepstatin A). HIRcB cells were immunoprecipitated with anti-αv β3 237 according to Suzuki et al., PNAS USA 83:8614 (1986), as shown in lanes 1 and 3, 237 preimmune serum in lane 2, anti-αv β3 1343 in lane 4, anti-αv β3 in lane 5, anti-α5 β1488 in lane 6 (made according to Argraves et al., J. Cell Biol. 105:1183 (1987)) and an unrelated rabbit antiserum (lane 7). Anti-αv β3 1343 was obtained from a person (Telios Pharmaceuticals, Inc.) and anti-αIIb β3 from Dr. Elisabetta Dejana (Mario Negri Institute, Milan, Italy). Three anti-α5 β1 antibodies and six unrelated polyclonal antibodies tested gave results similar to those shown in lanes 6 and 7. […] In lane 8, anti-αv β3 237 immunocomplexes from insulin-treated cells were dissociated and reprecipitated with the same antibody as follows. […]

[5] = system: HIRcB, NIH 3T3, NRK, HT29, UCLA-P3 and Panc-1 cells; experiment: Insulin responsiveness in a panel of αv β3 and αv β5 expressing cell lines on different substrates; assay type: cell-based; conditions: panel of six cell lines
Text: A correlation between αv β3 expression and increased insulin responsiveness on vitronectin was also found in a panel of three cell lines expressing αv β3 and three lines expressing only αv β5. […] All the cell lines attached equally to vitronectin. NRK, HT29, UCLA-P3 and Panc-1 attached also to laminin and collagen, and HIRcB and NIH 3T3 cells attached to laminin. The attachment to laminin and collagen was inhibited by anti-β1 antibodies (Vuori and Ruoslahti, unpublished data, and Hayman et al., J. Cell Biol. 100:1948 (1985); Hayashi et al., J. Cell biol. 110:175 (1990); Schreiner et al., Clin. Expl. Metastasis 9:163 (1991); and Cheresh et al., supra).

## EGF: Epidermal growth factor (Boehringer Mannheim) (NSDSECPLSHDGYCLHDGVCMYIEALDKYACNCVVGYIGERCQYRDLKWWELR; UniProt P01133 971-1023, looked up)
Rat-1 cells
  DNA synthesis response to EGF on vitronectin versus collagen: same response

## IGF-1: insulin-like growth factor (IGF-1), signals through IRS-1
NRK cells
  higher DNA synthesis in response to IGF-1 when plated on vitronectin than on collagen or laminin: about 2.3 fold

## PDGF: platelet derived growth factor, PDGF-BB (Boehringer Mannheim)
[1]
  higher DNA synthesis in response to PDGF when plated on vitronectin than on collagen: about 2.3 fold

## insulin
[2]
  higher DNA synthesis in response to insulin when plated on vitronectin than on collagen: about 2.5 fold
[3]
  difference in the DNA synthesis response on vitronectin and collagen: no difference
[4]; HIRcB cells
  time of insulin stimulation to maximal IRS-1-vitronectin receptor association: 3 min
[4]; insulin-stimulated HIRcB cells, share of IRS-1 of total cell lysate
  IRS-1 complexed with the vitronectin receptor: Five to eight
[5]
  effect of attachment to laminin on insulin responsiveness: did not increase
